# Values of other authors as cited in patent publication US6623763B2, “Pharmaceutical preparation adhering to the skin, in particular a transdermal therapeutic system for the release of 17-β-estradiol to the human organism” (LTS Lohmann Therape-System AG, priority 1996, dated 2003).
# What was measured:
# [1] = system: Alzheimer's and Parkinson's disease; conditions: uniform supply of estradiol
SMILES,efficacy for prophylaxis of Alzheimer's and Parkinson's disease [1],temperature of short-term heat treatment without decomposition
C[C@]12CC[C@@H]3c4ccc(O)cc4CC[C@H]3[C@@H]1CC[C@@H]2O [17-β-estradiol],effective,
"C[C@]12CC[C@@H]3c4ccc(O)cc4CC[C@H]3[C@@H]1CC[C@@H]2O [17-β-estradiol semihydrate, 17-β-estradiol-semihydrate]",,up to 170 °C
